Test system: NOMO1
Assay: cell viability relative to DMSO control; higher = less cytotoxic
Conditions: 48 h
Method in brief: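 NOMO1 or SEM (500 cells/well) or P12-Ichikawa (1000 cells/well) leukemia cells were adapted for at least four passages in each medium. They were seeded in 1536-well plates (5 μl) and pin-dosed with library compounds in DMSO over an 11-point threefold series, 47 μM to 0.79 nM. CellTiter-Glo One luminescence was read after 48 h at 37°C. Viability is the per-plate percentage relative to DMSO wells, with cell-free wells as background.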

[1] = HPLM + 10% dialyzed FBS, 0.000781 µM
[2] = HPLM + 10% dialyzed FBS, 0.00234 µM
[3] = HPLM + 10% dialyzed FBS, 0.00702 µM
[4] = HPLM + 10% dialyzed FBS, 0.0211 µM
[5] = HPLM + 10% dialyzed FBS, 0.0632 µM
[6] = HPLM + 10% dialyzed FBS, 0.19 µM
[7] = HPLM + 10% dialyzed FBS, 0.569 µM
[8] = HPLM + 10% dialyzed FBS, 1.71 µM
[9] = HPLM + 10% dialyzed FBS, 5.12 µM
[10] = HPLM + 10% dialyzed FBS, 15.4 µM
[11] = HPLM + 10% dialyzed FBS, 46.1 µM
[12] = RPMI 5 mM glucose + 10% FBS, 0.000781 µM
[13] = RPMI 5 mM glucose + 10% FBS, 0.00234 µM
[14] = RPMI 5 mM glucose + 10% FBS, 0.00702 µM
[15] = RPMI 5 mM glucose + 10% FBS, 0.0211 µM
[16] = RPMI 5 mM glucose + 10% FBS, 0.0632 µM
[17] = RPMI 5 mM glucose + 10% FBS, 0.19 µM
[18] = RPMI 5 mM glucose + 10% FBS, 0.569 µM
[19] = RPMI 5 mM glucose + 10% FBS, 1.71 µM
[20] = RPMI 5 mM glucose + 10% FBS, 5.12 µM
[21] = RPMI 5 mM glucose + 10% FBS, 15.4 µM
[22] = RPMI 5 mM glucose + 10% FBS, 46.1 µM
[23] = RPMI 5 mM glucose + 10% dialyzed FBS, 0.000781 µM
[24] = RPMI 5 mM glucose + 10% dialyzed FBS, 0.00234 µM
[25] = RPMI 5 mM glucose + 10% dialyzed FBS, 0.00702 µM
[26] = RPMI 5 mM glucose + 10% dialyzed FBS, 0.0211 µM
[27] = RPMI 5 mM glucose + 10% dialyzed FBS, 0.0632 µM
[28] = RPMI 5 mM glucose + 10% dialyzed FBS, 0.19 µM
[29] = RPMI 5 mM glucose + 10% dialyzed FBS, 0.569 µM
[30] = RPMI 5 mM glucose + 10% dialyzed FBS, 1.71 µM
[31] = RPMI 5 mM glucose + 10% dialyzed FBS, 5.12 µM
[32] = RPMI 5 mM glucose + 10% dialyzed FBS, 15.4 µM
[33] = RPMI 5 mM glucose + 10% dialyzed FBS, 46.1 µM

`CC[C@@H]1C(=O)N(C)c2cnc(Nc3ccc(C(=O)NC4CCN(C)CC4)cc3OC)nc2N1C1CCCC1` showed a cell viability [1] of 125%, a cell viability [2] of 115% and a cell viability [3] of 124%. For the same compound, the cell viability [4] was 118%, the cell viability [5] was 45.9% and the cell viability [6] was 43.7%. It also gave a cell viability [7] of 57.4%, a cell viability [8] of 46.6% and a cell viability [9] of 36.9%. For the same compound, the cell viability [10] was 21.5%, the cell viability [11] was 4.78% and the cell viability [12] was 117%. The cell viability [13] was 112%, the cell viability [14] was 116% and the cell viability [15] was 117%. For the same compound, the cell viability [16] was 68.9%, the cell viability [17] was 28.6% and the cell viability [18] was 24.5%. For the same compound, the cell viability [19] was 27.1%, the cell viability [20] was 22.9% and the cell viability [21] was 14.3%. For the same compound, the cell viability [22] was 5.11%, the cell viability [23] was 107% and the cell viability [24] was 121%. It also gave a cell viability [25] of 113%, a cell viability [26] of 117% and a cell viability [27] of 53.9%. The cell viability [28] was 30%, the cell viability [29] was 32.6% and the cell viability [30] was 39%. For the same compound, the cell viability [31] was 30.9%, the cell viability [32] was 21.8% and the cell viability [33] was 10.4%.

`CCC(C1CCC(C)C(O1)C(C)C(O)C(C)C(=O)C(CC)C2OC\3(O[C@]4(CC[C@@](C)(O4)C5CC[C@@](O)(CC)C(C)O5)C(O)\C=C3)C(C)CC2C)C([O-])=O` (stereo partly specified) showed a cell viability [1] of 111%, a cell viability [2] of 121% and a cell viability [3] of 101%. For the same compound, the cell viability [4] was 91.2%, the cell viability [5] was 119% and the cell viability [6] was 109%. It also gave a cell viability [7] of 117%, a cell viability [8] of 68.6% and a cell viability [9] of 38%. It also gave a cell viability [10] of 27.3%, a cell viability [11] of 26.4% and a cell viability [12] of 90.5%. For the same compound, the cell viability [13] was 34.1%, the cell viability [14] was 99.9% and the cell viability [15] was 90.6%. For the same compound, the cell viability [16] was 114%, the cell viability [17] was 110% and the cell viability [18] was 97.1%. The cell viability [19] was 67.6%, the cell viability [20] was 19.7% and the cell viability [21] was 16.6%. The cell viability [22] was 15.3%, the cell viability [23] was 96.9% and the cell viability [24] was 78.6%. It also gave a cell viability [25] of 132%, a cell viability [26] of 153% and a cell viability [27] of 119%. For the same compound, the cell viability [28] was 75.1%, the cell viability [29] was 102% and the cell viability [30] was 36.2%. It also gave a cell viability [31] of 15.2%, a cell viability [32] of 13.5% and a cell viability [33] of 11%.

In the case of `COc1cc2ncn(-c3cc(OCc4ccccc4C(F)(F)F)c(C(N)=O)s3)c2cc1OC`, the cell viability [1] is reported as 124%, the cell viability [2] is reported as 117% and the cell viability [3] is reported as 126%. For the same compound, the cell viability [4] was 117%, the cell viability [5] was 120% and the cell viability [6] was 115%. The cell viability [7] was 89.2%, the cell viability [8] was 46.1% and the cell viability [9] was 42.2%. The cell viability [10] was 41.2%, the cell viability [11] was 24.9% and the cell viability [12] was 99.2%. The cell viability [13] was 111%, the cell viability [14] was 116% and the cell viability [15] was 111%. The cell viability [16] was 120%, the cell viability [17] was 118% and the cell viability [18] was 110%. It also gave a cell viability [19] of 94.9%, a cell viability [20] of 26.3% and a cell viability [21] of 24.6%. For the same compound, the cell viability [22] was 17.6%, the cell viability [23] was 108% and the cell viability [24] was 122%. It also gave a cell viability [25] of 112%, a cell viability [26] of 113% and a cell viability [27] of 112%. The cell viability [28] was 123%, the cell viability [29] was 117% and the cell viability [30] was 85.2%. It also gave a cell viability [31] of 32.4%, a cell viability [32] of 30.1% and a cell viability [33] of 24.9%.

Work on `N=C(N)Nc1ccc(C(=O)Oc2ccc3cc(C(=N)N)ccc3c2)cc1` yielded a cell viability [1] of 96.3%, a cell viability [2] of 103% and a cell viability [3] of 100%. It also gave a cell viability [4] of 100%, a cell viability [5] of 101% and a cell viability [6] of 95.6%. It also gave a cell viability [7] of 93.5%, a cell viability [8] of 100% and a cell viability [9] of 81.1%. For the same compound, the cell viability [10] was 89.6%, the cell viability [11] was 48% and the cell viability [12] was 93.7%. It also gave a cell viability [13] of 84.8%, a cell viability [14] of 83.5% and a cell viability [15] of 86.6%. For the same compound, the cell viability [16] was 90.8%, the cell viability [17] was 86% and the cell viability [18] was 90.7%. For the same compound, the cell viability [19] was 89.8%, the cell viability [20] was 90.5% and the cell viability [21] was 73.3%. It also gave a cell viability [22] of 50.6%, a cell viability [23] of 86% and a cell viability [24] of 85.3%. The cell viability [25] was 78.6%, the cell viability [26] was 90.4% and the cell viability [27] was 95.3%. It also gave a cell viability [28] of 92.4%, a cell viability [29] of 79.4% and a cell viability [30] of 83.7%. For the same compound, the cell viability [31] was 88.7%, the cell viability [32] was 70.5% and the cell viability [33] was 45.3%.

Work on `Cc1nc(N)ncc1-c1nc(N2CCOCC2)c2sc(C(C)(C)O)cc2n1` yielded a cell viability [12] of 109%, a cell viability [13] of 118% and a cell viability [14] of 113%. The cell viability [15] was 117%, the cell viability [16] was 106% and the cell viability [17] was 64%. It also gave a cell viability [18] of 18.7%, a cell viability [19] of 18.5% and a cell viability [20] of 10.5%. It also gave a cell viability [21] of 9.97%, a cell viability [22] of 9.89% and a cell viability [23] of 114%. For the same compound, the cell viability [24] was 113%, the cell viability [25] was 94.2% and the cell viability [26] was 111%. The cell viability [27] was 89.5%, the cell viability [28] was 86.4% and the cell viability [29] was 28.1%. The cell viability [30] was 22.6%, the cell viability [31] was 13.3% and the cell viability [32] was 11.4%. For the same compound, the cell viability [33] was 7.33%.

With `Oc1c(Cl)cc(Cl)c2cccnc12` the cell viability [1] was 102%, the cell viability [2] was 113% and the cell viability [3] was 115%. For the same compound, the cell viability [4] was 93.6%, the cell viability [5] was 97.4% and the cell viability [6] was 92.6%. For the same compound, the cell viability [7] was 113%, the cell viability [8] was 91.4% and the cell viability [9] was 96.2%. The cell viability [10] was 111%, the cell viability [11] was 81.6% and the cell viability [12] was 91.7%. It also gave a cell viability [13] of 69.2%, a cell viability [14] of 105% and a cell viability [15] of 94.3%. For the same compound, the cell viability [16] was 92.6%, the cell viability [17] was 98.4% and the cell viability [18] was 116%. The cell viability [19] was 90.6%, the cell viability [20] was 84.8% and the cell viability [21] was 91.6%. For the same compound, the cell viability [22] was 62.6%, the cell viability [23] was 93.1% and the cell viability [24] was 90.8%. It also gave a cell viability [25] of 108%, a cell viability [26] of 97.7% and a cell viability [27] of 103%. For the same compound, the cell viability [28] was 94.3%, the cell viability [29] was 121% and the cell viability [30] was 101%. For the same compound, the cell viability [31] was 101%, the cell viability [32] was 91.7% and the cell viability [33] was 56.5%.

With `COc1cc(OC)c(C(=O)CCCN2CCCC2)c(OC)c1` the cell viability [12] was 132%, the cell viability [13] was 125% and the cell viability [14] was 122%. The cell viability [15] was 127%, the cell viability [16] was 127% and the cell viability [17] was 116%. It also gave a cell viability [18] of 120%, a cell viability [19] of 108% and a cell viability [20] of 119%. It also gave a cell viability [21] of 98.4% and a cell viability [22] of 106%.

In the case of `O=C(O)Cc1cccc(OCCCN(Cc2cccc(C(F)(F)F)c2Cl)CC(c2ccccc2)c2ccccc2)c1`, the cell viability [1] is reported as 122%, the cell viability [2] is reported as 123% and the cell viability [3] is reported as 136%. For the same compound, the cell viability [4] was 110%, the cell viability [5] was 114% and the cell viability [6] was 108%. The cell viability [7] was 118%, the cell viability [8] was 99.3% and the cell viability [9] was 106%. For the same compound, the cell viability [10] was 118% and the cell viability [11] was 114%.

`CC1=C(/C=C/C(C)=C/C=C/C(C)=C/C(=O)O)C(C)(C)CCC1` showed a cell viability [1] of 106%, a cell viability [2] of 106% and a cell viability [3] of 144%. The cell viability [4] was 126%, the cell viability [5] was 114% and the cell viability [6] was 127%. For the same compound, the cell viability [7] was 110%, the cell viability [8] was 104% and the cell viability [9] was 98%. For the same compound, the cell viability [10] was 84.3%, the cell viability [11] was 80.3% and the cell viability [12] was 128%. It also gave a cell viability [13] of 124%, a cell viability [14] of 114% and a cell viability [15] of 111%. The cell viability [16] was 118%, the cell viability [17] was 122% and the cell viability [18] was 128%. The cell viability [19] was 110%, the cell viability [20] was 94% and the cell viability [21] was 99.1%. It also gave a cell viability [22] of 68.4%.

— the supplement of paper PMC11451515
